Laboratory results from ChEMBL document CHEMBL6096661, “Synthesis, biological evaluation and mechanism study of a novel indole-pyridine chalcone derivative as antiproliferative agent against tumor cells through dual targeting tubulin and HK2” (Eur J Med Chem, 2025).
Activity calls are given as the source filed them. The rule behind the calls is not given here.

What was measured:
MDA-MB-231 = assay: Antiproliferative activity against human MDA-MB-231 cells assessed as reduction in cell proliferation incubated for 48 hrs by CCK-8 assay; assay type: functional, cell-based; conditions: MDA-MB-231, 48 h
HT-1080 = assay: Antiproliferative activity against human HT-1080 cells assessed as inhibition of cell growth incubated for 48 hrs by CCK-8 assay; assay type: functional, cell-based; conditions: HT-1080, 48 h
LoVo = assay: Antiproliferative activity against human LoVo cells assessed as inhibition of cell growth incubated for 48 hrs by CCK-8 assay; assay type: functional, cell-based
SW480 = assay: Antiproliferative activity against human SW480 cells assessed as inhibition of cell growth incubated for 48 hrs by CCK-8 assay; assay type: functional, cell-based; conditions: SW480, 48 h
HCT-116 = assay: Antiproliferative activity against human HCT-116 cells assessed as inhibition of cell growth incubated for 48 hrs by CCK-8 assay; assay type: functional, cell-based; conditions: HCT-116, 48 h
[1] = biological target: T1, Hexokinase-2 (Homo sapiens) (UniProt P52789); assay: Inhibition of human HK2 transfected in Escherichia coli BL21 (DE) incubated for 10 mins
T1 sequence (whole entry): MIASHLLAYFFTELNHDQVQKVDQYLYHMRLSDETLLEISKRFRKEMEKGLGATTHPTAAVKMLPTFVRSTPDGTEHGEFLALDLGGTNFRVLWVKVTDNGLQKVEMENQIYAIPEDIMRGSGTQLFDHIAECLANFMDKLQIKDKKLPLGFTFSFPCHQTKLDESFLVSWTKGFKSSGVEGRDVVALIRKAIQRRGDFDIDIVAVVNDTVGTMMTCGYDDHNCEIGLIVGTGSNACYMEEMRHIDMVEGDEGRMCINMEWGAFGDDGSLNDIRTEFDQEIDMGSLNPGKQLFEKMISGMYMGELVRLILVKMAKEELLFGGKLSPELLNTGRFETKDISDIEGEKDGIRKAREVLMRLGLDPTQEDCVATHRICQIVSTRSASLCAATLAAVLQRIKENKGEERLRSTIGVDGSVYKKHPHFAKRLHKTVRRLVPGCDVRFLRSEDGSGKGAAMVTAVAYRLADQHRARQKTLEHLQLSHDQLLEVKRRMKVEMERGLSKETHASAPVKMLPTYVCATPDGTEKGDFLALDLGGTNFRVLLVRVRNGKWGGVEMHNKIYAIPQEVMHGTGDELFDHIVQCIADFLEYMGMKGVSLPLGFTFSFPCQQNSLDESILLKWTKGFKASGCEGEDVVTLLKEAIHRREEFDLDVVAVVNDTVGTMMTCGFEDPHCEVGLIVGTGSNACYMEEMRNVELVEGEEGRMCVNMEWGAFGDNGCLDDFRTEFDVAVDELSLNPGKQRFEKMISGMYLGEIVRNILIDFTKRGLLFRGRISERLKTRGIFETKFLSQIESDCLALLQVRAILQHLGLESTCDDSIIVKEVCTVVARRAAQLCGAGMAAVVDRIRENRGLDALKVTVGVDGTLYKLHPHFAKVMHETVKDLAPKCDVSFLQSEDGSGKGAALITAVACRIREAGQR

SMILES | IC50 (MDA-MB-231) | also measured
C/C(=C\c1c[nH]c2ccc(N3CCOCC3)cc12)C(=O)c1cccnc1 | 56.6 µM | –
Cc1ccc(S(=O)(=O)n2cc(/C=C/C(=O)c3ccncc3)c3cc(N4CCOCC4)ccc32)cc1 | 3.51 µM | –
Cc1[nH]c2ccc(N3CCOCC3)cc2c1/C=C/C(=O)c1cccnc1 | 42.5 µM | –
O=C(/C=C/c1cn(S(=O)(=O)c2ccc([N+](=O)[O-])cc2)c2ccc(N3CCOCC3)cc12)c1ccncc1 | 1.53 µM | IC50 (HT-1080): 0.681 µM; IC50 (LoVo): 0.392 µM; IC50 (SW480): 1.08 µM; IC50 (HCT-116): 1.85 µM
O=C(/C=C/c1cn(S(=O)(=O)c2ccc([N+](=O)[O-])cc2)c2ccc(N3CCOCC3)cc12)c1ncccn1 | 1.81 µM | IC50 (HT-1080): 1.19 µM; IC50 (LoVo): 1.3 µM; IC50 (SW480): 2.03 µM; IC50 (HCT-116): 3.46 µM
O=Cc1c[nH]c2ccc(N3CCOCC3)cc12 | 88.6 µM | –
O=C(/C=C/c1cn(S(=O)(=O)c2ccc([N+](=O)[O-])cc2)c2ccc(N3CCOCC3)cc12)c1cnc2ccccc2c1 | 104 µM | –
O=C(/C=C/c1cn(S(=O)(=O)c2ccc3ccccc3c2)c2ccc(N3CCOCC3)cc12)c1ccncc1 | 12.8 µM | –
O=C(/C=C/c1cn(S(=O)(=O)c2cccs2)c2ccc(N3CCOCC3)cc12)c1ccncc1 | 7.53 µM | –
O=C(/C=C/c1cn(S(=O)(=O)c2ccc(Cl)cc2)c2ccc(N3CCOCC3)cc12)c1ccncc1 | 7.19 µM | –
COc1ccc(C(=O)/C=C/c2cn(S(=O)(=O)c3ccc([N+](=O)[O-])cc3)c3ccc(N4CCOCC4)cc23)cn1 | 73.9 µM | –
C/C(=C\c1cn(S(=O)(=O)c2ccc([N+](=O)[O-])cc2)c2ccc(N3CCOCC3)cc12)C(=O)c1cccnc1 | 43.1 µM | –
CC(C)(C)c1ccc(S(=O)(=O)n2cc(/C=C/C(=O)c3ccncc3)c3cc(N4CCOCC4)ccc32)cc1 | 7.98 µM | –
COc1ccc2c(c1)c(/C=C/C(=O)c1ccncc1)cn2S(=O)(=O)c1ccc(C)cc1 | 3.81 µM | –
O=C(/C=C/c1cn(S(=O)(=O)c2ccc(I)cc2)c2ccc(N3CCOCC3)cc12)c1ccncc1 | 20.5 µM | –
O=C(/C=C/c1cn(S(=O)(=O)c2ccccc2)c2ccc(N3CCOCC3)cc12)c1ccncc1 | 7.29 µM | –
O=C(/C=C/c1cn(S(=O)(=O)c2ccc(F)cc2)c2ccc(N3CCOCC3)cc12)c1ccncc1 | 5.48 µM | –
Cc1ccc(S(=O)(=O)n2cc(C=O)c3cc(N4CCOCC4)ccc32)cc1 | 15.9 µM | –
COc1cc(C(=O)/C=C/c2cn(S(=O)(=O)c3ccc([N+](=O)[O-])cc3)c3ccc(N4CCOCC4)cc23)cc(OC)c1OC | 15.6 µM | –
O=C(/C=C/c1cn(S(=O)(=O)c2ccc([N+](=O)[O-])cc2)c2cc(N3CCOCC3)ccc12)c1cccnc1 | 0.857 µM | IC50 (HT-1080): 0.773 µM; IC50 (LoVo): 0.792 µM; IC50 (SW480): 0.718 µM; IC50 (HCT-116): 1.7 µM
COc1cc(C(=O)/C=C/c2cn(S(=O)(=O)c3ccc(C)cc3)c3ccc(N4CCOCC4)cc23)cc(OC)c1OC | 19.9 µM | –
O=C(/C=C/c1cn(S(=O)(=O)c2ccc([N+](=O)[O-])cc2)c2ccc(N3CCOCC3)cc12)c1cncnc1 | 1.59 µM | IC50 (HT-1080): 0.469 µM; IC50 (LoVo): 0.679 µM; IC50 (SW480): 0.716 µM; IC50 (HCT-116): 1.57 µM
O=C(/C=C/c1cn(S(=O)(=O)c2ccc([N+](=O)[O-])cc2)c2ccc(N3CCOCC3)cc12)c1ccc(N2CCCCC2)nc1 | 151 µM | –
O=C(/C=C/c1cn(S(=O)(=O)c2ccc([N+](=O)[O-])cc2)c2ccc(N3CCOCC3)cc12)c1cncc2ccccc12 | 8.7 µM | –
O=C(/C=C/c1cn(S(=O)(=O)c2ccc([N+](=O)[O-])cc2)c2ccc(N3CCOCC3)cc12)c1ccccn1 | 0.915 µM | IC50 (HT-1080): 0.793 µM; IC50 (LoVo): 0.74 µM; IC50 (SW480): 1.08 µM; IC50 (HCT-116): 1.04 µM
COc1ccc(S(=O)(=O)n2cc(/C=C/C(=O)c3ccncc3)c3cc(N4CCOCC4)ccc32)cc1 | 7.58 µM | –
COc1cc(C(=O)/C=C/c2c[nH]c3ccc(N4CCOCC4)cc23)cc(OC)c1OC | 11.2 µM | –
O=C(/C=C/c1cn(S(=O)(=O)c2ccc(C(F)(F)F)cc2)c2ccc(N3CCOCC3)cc12)c1ccncc1 | 4.81 µM | –

SMILES | IC50 (MDA-MB-231) | also measured
COc1cc(C(=O)/C=C/c2cn(CO)c3ccc(N4CCOCC4)cc23)cc(OC)c1OC | 12.5 µM | –
O=[N+]([O-])c1ccc(S(=O)(=O)n2cc(C3CC(c4ccncc4)=NO3)c3cc(N4CCOCC4)ccc32)cc1 (centres undefined) | 150 µM | –
O=C(/C=C/c1cn(S(=O)(=O)c2ccc([N+](=O)[O-])cc2)c2ccc(N3CCOCC3)cc12)c1ccco1 | 27.1 µM | –
CC(C)(C)OC(=O)n1cc(/C=C/C(=O)c2ccncc2)c2cc(N3CCOCC3)ccc21 | 7.52 µM | –
COc1cc2c(c(OC)c1OC)-c1ccc(OC)c(=O)cc1[C@@H](NC(C)=O)CC2 [COLCHICINE] | 2.2 µM | inhibition [1]: inactive
O=C(/C=C/c1cn(S(=O)(=O)Cc2ccccc2)c2ccc(N3CCOCC3)cc12)c1ccncc1 | 2.5 µM | –
O=C(/C=C/c1cn(S(=O)(=O)c2ccc([N+](=O)[O-])cc2)c2ccc(N3CCSCC3)cc12)c1cccnc1 | 3.94 µM | –
c1cc(C2=NOC(c3c[nH]c4ccc(N5CCOCC5)cc34)C2)ccn1 (centres undefined) | 200 µM | –
COc1ccc(C(=O)/C=C/c2cn(S(=O)(=O)c3ccc([N+](=O)[O-])cc3)c3ccc(N4CCOCC4)cc23)c(OC)n1 | 416 µM | –
O=C(/C=C/c1c[nH]c2ccc(N3CCOCC3)cc12)c1ccncc1 | 39.3 µM | –
Cc1ccc(C(=O)/C=C/c2cn(S(=O)(=O)c3ccc([N+](=O)[O-])cc3)c3ccc(N4CCOCC4)cc23)cn1 | 6.25 µM | –
c1cc(C2=NNC(c3c[nH]c4ccc(N5CCOCC5)cc34)C2)ccn1 (centres undefined) | 180 µM | –
Cc1ccc(S(=O)(=O)n2cc(/C=C/C(=O)c3ccncc3)c3ccccc32)cc1 | 8.49 µM | –
c1cncc(C2=NOC(c3c[nH]c4ccc(N5CCOCC5)cc34)C2)c1 (centres undefined) | 90.3 µM | –
O=C(/C=C/c1cn(S(=O)(=O)c2ccc([N+](=O)[O-])cc2)c2ccc(N3CCOCC3)cc12)c1ccccc1 | 23.9 µM | –
N#Cc1ccc(S(=O)(=O)n2cc(/C=C/C(=O)c3ccncc3)c3cc(N4CCOCC4)ccc32)cc1 | 5.48 µM | –
O=C(/C=C/c1cn(C(=O)c2ccccc2)c2ccc(N3CCOCC3)cc12)c1ccncc1 | 7.7 µM | –
Cc1ccc(C(=O)/C=C/c2cn(S(=O)(=O)c3ccc([N+](=O)[O-])cc3)c3ccc(N4CCOCC4)cc23)c(C)n1 | 1.07 µM | IC50 (HT-1080): 0.754 µM; IC50 (LoVo): 0.221 µM; IC50 (SW480): 0.655 µM; IC50 (HCT-116): 1.13 µM
O=C(/C=C/c1cn(S(=O)(=O)c2ccc(Br)cc2)c2ccc(N3CCOCC3)cc12)c1ccncc1 | 9.53 µM | –
COc1cc(C(=O)/C=C/c2cn(C)c3ccc(N4CCOCC4)cc23)cc(OC)c1OC | 12.1 µM | –
O=C(/C=C/c1cn(S(=O)(=O)c2ccc([N+](=O)[O-])cc2)c2ccc(N3CCOCC3)cc12)c1nccs1 | 8 µM | –
O=C(/C=C/c1cn(S(=O)(=O)c2ccc([N+](=O)[O-])cc2)c2ccc(N3CCCCC3)cc12)c1cccnc1 | 0.816 µM | IC50 (HT-1080): 0.751 µM; IC50 (LoVo): 0.765 µM; IC50 (SW480): 0.999 µM; IC50 (HCT-116): 3.19 µM
O=C(/C=C/c1cn(Cc2ccccc2)c2ccc(N3CCOCC3)cc12)c1ccncc1 | 148 µM | –
O=C(/C=C/c1cn(S(=O)(=O)c2cccnc2)c2ccc(N3CCOCC3)cc12)c1ccncc1 | 2.89 µM | –
O=C(/C=C/c1cn(S(=O)(=O)c2cccc3ccccc23)c2ccc(N3CCOCC3)cc12)c1ccncc1 | 45.4 µM | –
CC(=O)n1cc(/C=C/C(=O)c2ccncc2)c2cc(N3CCOCC3)ccc21 | 7.77 µM | –
COc1cc(C(=O)/C=C/c2cn(C(=O)c3cc(OC)c(OC)c(OC)c3)c3ccc(N4CCOCC4)cc23)cc(OC)c1OC | 13.8 µM | –
